# Patent US20260115185A1, “QUINOLINE DERIVATIVES WHICH ACT AS KAPPA-OPIOID RECEPTOR ANTAGONISTS” (The Scripps Research Institute, priority 2023, published 2026)
# Experiments:
# [1] = target: T1, kappa opioid receptor (KOR) (Homo sapiens, UniProt P41145); test: OPRKappa 1 Tango B-Arrestin Assay, antagonist mode (Tango OPRK1-bla U2OS cells, U50488 EC80 challenge); format: cell-based; details: for Selectivity (MOR/KOR): Kappa selectivity, MOR IC50 / KOR IC50; for IC50: antagonist mode, Tango OPRK1-bla U2OS cells, 6 nM U50488 challenge
# T1 construct: host or cells: U2OS (Tango OPRK1-bla U2OS)
# T1 sequence (P41145 whole entry): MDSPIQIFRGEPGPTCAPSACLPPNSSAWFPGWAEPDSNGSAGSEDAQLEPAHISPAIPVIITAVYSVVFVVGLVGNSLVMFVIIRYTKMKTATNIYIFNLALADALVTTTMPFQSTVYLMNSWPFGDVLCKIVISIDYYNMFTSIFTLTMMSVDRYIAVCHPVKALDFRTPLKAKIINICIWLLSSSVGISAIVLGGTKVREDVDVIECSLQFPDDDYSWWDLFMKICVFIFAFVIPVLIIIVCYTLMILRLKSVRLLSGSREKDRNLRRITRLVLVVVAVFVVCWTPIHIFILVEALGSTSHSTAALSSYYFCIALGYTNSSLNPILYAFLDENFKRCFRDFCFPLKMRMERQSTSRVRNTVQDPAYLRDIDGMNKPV
# Procedure, shortened: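 Tango OPRK1-bla U2OS cells, β-arrestin recruitment read as β-lactamase FRET (CCF4-AM, 460/590 nm emission). Compounds, 10-point 1:3 series from nominal 10 µM in quadruplicate, preincubated 30 min at 37 °C, then challenged with U50488 at 6 nM final (EC80) for 4 h; percent inhibition from median ratio.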
# [2] = target: T2, mu opioid receptor (MOR) (Homo sapiens, UniProt P35372); test: OPRMu1 Discover X β-arrestin Assay, antagonist mode (U2OS cells, DAMGO EC80 challenge); format: cell-based
# T2 construct: host or cells: U2OS (Discover X OPRMu1-U2OS, PathHunter)
# T2 sequence (P35372 whole entry): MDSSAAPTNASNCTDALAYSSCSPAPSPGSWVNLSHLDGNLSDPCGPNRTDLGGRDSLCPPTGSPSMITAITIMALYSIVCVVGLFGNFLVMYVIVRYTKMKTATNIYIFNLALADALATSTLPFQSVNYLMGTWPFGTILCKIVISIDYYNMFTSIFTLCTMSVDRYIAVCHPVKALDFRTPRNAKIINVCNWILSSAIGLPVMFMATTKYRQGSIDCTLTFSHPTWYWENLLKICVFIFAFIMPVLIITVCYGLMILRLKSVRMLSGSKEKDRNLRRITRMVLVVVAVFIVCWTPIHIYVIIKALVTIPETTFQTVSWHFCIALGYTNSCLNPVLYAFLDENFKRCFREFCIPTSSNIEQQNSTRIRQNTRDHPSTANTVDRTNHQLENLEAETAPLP
# Procedure, shortened: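 PathHunter U2OS cells with β-gal fragment-complementation readout for β-arrestin recruitment to OPRMu1. Cells were preincubated with compound (10-point, 1:3 series from nominal 10 micromolar) for 30 min at 37 °C, then challenged with 303 nM DAMGO (EC80) for 3 h. Luminescence gave percent inhibition.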
SMILES,Selectivity (MOR/KOR) [1],IC50 [1] [nM],IC50 [2] [nM]
CCc1cc(F)c2nc(N3CC[C@H](N[C@@H]4CCOC4)[C@@H](C)C3)c(-c3ccn(C)n3)c(C)c2c1 [Compound 108],+++ (between 100- to 1000-fold selective),1 to 10,100 to 1000
CCc1cc(F)c2nc(N3CC[C@@H](N[C@@H]4CCOC4)[C@H](C)C3)c(-c3ccn(C)n3)c(C)c2c1 [Compound 110],+++ (between 100- to 1000-fold selective),1 to 10,> 1000
CCc1cc(F)c2nc(N3CC[C@H](N[C@@H]4CCCOC4)[C@@H](C)C3)c(-c3ccn(C)n3)c(C)c2c1 [Compound 112],+++ (between 100- to 1000-fold selective),1 to 10,> 1000
CCc1cc(F)c2nc(N3CC[C@@H](N[C@@H]4CCCOC4)[C@@H](C)C3)c(-c3ccn(C)n3)c(C)c2c1 [Compound 113],++++ (more than 1000-fold selectivity over MOR),< 1,> 1000
CCc1cc(F)c2nc(N3CC[C@@H](N[C@@H]4CCCOC4)[C@H](C)C3)c(-c3ccn(C)n3)c(C)c2c1 [Compound 114],++ (between 10- and 100-fold selectivity),1 to 10,100 to 1000
CCc1cc(F)c2nc(N3CC[C@@H](N[C@@H]4CCOC4)C[C@@H]3C)c(-c3ccn(C)n3)c(C)c2c1 [Compound 116],++++ (more than 1000-fold selectivity over MOR),1 to 10,> 1000
CCc1cc(F)c2nc(N3CC[C@H](N[C@@H]4CCOC4)C[C@@H]3C)c(-c3ccn(C)n3)c(C)c2c1 [Compound 117],+++ (between 100- to 1000-fold selective),1 to 10,100 to 1000
CCc1cc(F)c2nc(N3CC[C@H](N[C@@H]4CCOC4)C[C@H]3C)c(-c3ccn(C)n3)c(C)c2c1 [Compound 118],++++ (more than 1000-fold selectivity over MOR),< 1,100 to 1000
CCc1cc(F)c2nc(N3CC[C@@H](N[C@@H]4CCCOC4)C[C@H]3C)c(-c3ccn(C)n3)c(C)c2c1 [Compound 119],++++ (more than 1000-fold selectivity over MOR),< 1,100 to 1000
CCc1cc(F)c2nc(N3CC[C@@H](N[C@@H]4CCCOC4)C[C@@H]3C)c(-c3ccn(C)n3)c(C)c2c1 [Compound 120],++++ (more than 1000-fold selectivity over MOR),< 1,> 1000
CCc1cc(F)c2nc(N3CC[C@H](N[C@@H]4CCCOC4)C[C@@H]3C)c(-c3ccn(C)n3)c(C)c2c1 [Compound 121],+++ (between 100- to 1000-fold selective),10 to 100,> 1000
CCc1cc(F)c2nc(N3CC[C@H](N[C@@H]4CCCOC4)C[C@H]3C)c(-c3ccn(C)n3)c(C)c2c1 [Compound 122],+++ (between 100- to 1000-fold selective),< 1,10 to 100
CCc1cc(F)c2nc(N3CC[C@@H]4[C@@H](CCN4[C@@H]4CCOC4)C3)c(-c3ccn(C)n3)c(C)c2c1 [Compound 123],+++ (between 100- to 1000-fold selective),10 to 100,> 1000
CCc1cc(F)c2nc(N3CC[C@@H]4[C@@H](CCN4[C@@H]4CCCOC4)C3)c(-c3ccn(C)n3)c(C)c2c1 [Compound 124],+++ (between 100- to 1000-fold selective),10 to 100,> 1000
CCc1cc(F)c2nc(N3CC[C@H]4[C@H](CCN4[C@@H]4CCOC4)C3)c(-c3ccn(C)n3)c(C)c2c1 [Compound 125],++++ (more than 1000-fold selectivity over MOR),1 to 10,> 1000
CCc1cc(F)c2nc(N3CC[C@H]4[C@H](CCN4[C@@H]4CCCOC4)C3)c(-c3ccn(C)n3)c(C)c2c1 [Compound 126],++ (between 10- and 100-fold selectivity),10 to 100,> 1000

SMILES,Selectivity (MOR/KOR) [1],IC50 [1] [nM],IC50 [2] [nM]
CCc1cc(F)c2nc(N3CC[C@@H]4[C@@H](CCN4C[C@@H]4CCCOC4)C3)c(-c3ccn(C)n3)c(C)c2c1 [Compound 128],++ (between 10- and 100-fold selectivity),≥ 100,> 1000
CCc1cc(F)c2nc(N3CC[C@H]4[C@H](CCN4C[C@@H]4CCCOC4)C3)c(-c3ccn(C)n3)c(C)c2c1 [Compound 130],++ (between 10- and 100-fold selectivity),10 to 100,> 1000
CCc1cc(F)c2nc(N3CC[C@@H]4[C@@H](CCN4C[C@@H]4CCCOC4)C3)c(-c3ccn(C)n3)c(C)c2c1 [Compound 133],+++ (between 100- to 1000-fold selective),10 to 100,> 1000
CCc1cc(F)c2nc(N3CC[C@@H](N[C@@H]4CCOC4)C[C@H]3C)c(-c3cc(C)no3)c(C)c2c1 [Compound 137],++++ (more than 1000-fold selectivity over MOR),< 1,100 to 1000
CCc1cc(F)c2nc(N3CC[C@@H](N[C@@H]4CCOC4)C[C@@H]3C)c(-c3cc(C)no3)c(C)c2c1 [Compound 138],+++ (between 100- to 1000-fold selective),10 to 100,> 1000
CCc1cc(F)c2nc(N3CC[C@H](N[C@@H]4CCOC4)C[C@H]3C)c(-c3cc(C)no3)c(C)c2c1 [Compound 140],+++ (between 100- to 1000-fold selective),< 1,100 to 1000
CCc1cc(F)c2nc(N3CC[C@H](N[C@@H]4CCCOC4)C[C@H]3C)c(-c3cc(C)no3)c(C)c2c1 [Compound 142],+++ (between 100- to 1000-fold selective),< 1,10 to 100
CCc1cc(F)c2nc(N3CC[C@@H](N[C@@H]4CCCOC4)C[C@@H]3C)c(-c3cc(C)no3)c(C)c2c1 [Compound 143],++++ (more than 1000-fold selectivity over MOR),10 to 100,> 1000
CCc1cc(F)c2nc(N3CC[C@@H](N[C@@H]4CCCOC4)C[C@H]3C)c(-c3cc(C)no3)c(C)c2c1 [Compound 144],+++ (between 100- to 1000-fold selective),< 1,100 to 1000
CCc1cc(F)c2nc(N3CCN(C(=O)CN4CC[C@@H](O)C4)C[C@H]3C)c(-c3nc(C)no3)c(C)c2c1 [Compound 145],++++ (more than 1000-fold selectivity over MOR),1 to 10,> 1000
CCc1cc(F)c2nc(N3CCN(C(=O)[C@@H](C)N4CC[C@@H](O)C4)C[C@H]3C)c(-c3nc(C)no3)c(C)c2c1 [Compound 146],+++ (between 100- to 1000-fold selective),10 to 100,> 1000
CCc1cc(F)c2nc(N3CCN(C(=O)[C@@H](C)N4CC[C@@H](F)C4)C[C@H]3C)c(-c3nc(C)no3)c(C)c2c1 [Compound 147],+++ (between 100- to 1000-fold selective),1 to 10,100 to 1000
CCc1cc(F)c2nc(N3CCN(C(=O)[C@@H](C(C)C)N4CCCC4)C[C@H]3C)c(-c3nc(C)no3)c(C)c2c1 [Compound 148],+++ (between 100- to 1000-fold selective),1 to 10,> 1000
CCc1cc(F)c2nc(N3CCN(C(=O)CN4CC[C@@H](F)C4)C[C@H]3C)c(-c3nc(C)no3)c(C)c2c1 [Compound 149],+++ (between 100- to 1000-fold selective),1 to 10,100 to 1000
CCc1cc(F)c2nc(N3CCN(C(=O)[C@H](C)N4CC[C@@H](O)C4)C[C@H]3C)c(-c3nc(C)no3)c(C)c2c1 [Compound 150],+++ (between 100- to 1000-fold selective),≥ 100,> 1000
CCc1cc(F)c2nc(N3CCN(C(=O)[C@H](C(C)C)N4CCCC4)C[C@H]3C)c(-c3nc(C)no3)c(C)c2c1 [Compound 152],+++ (between 100- to 1000-fold selective),1 to 10,> 1000
